Source: paper PMC4981720, “Identification of Multiple Cryptococcal Fungicidal Drug Targets by Combined Gene Dosing and Drug Affinity Responsive Target Stability Screening” (mBio, 2016)

Target: T1, malate dehydrogenase (Mdh3) (Cryptococcus neoformans, UniProt J9VXN5)
T1 construct: gene CNAG_03225; Mdh3-MBP fusion protein expressed in S. cerevisiae
T1 sequence (J9VXN5 1-338): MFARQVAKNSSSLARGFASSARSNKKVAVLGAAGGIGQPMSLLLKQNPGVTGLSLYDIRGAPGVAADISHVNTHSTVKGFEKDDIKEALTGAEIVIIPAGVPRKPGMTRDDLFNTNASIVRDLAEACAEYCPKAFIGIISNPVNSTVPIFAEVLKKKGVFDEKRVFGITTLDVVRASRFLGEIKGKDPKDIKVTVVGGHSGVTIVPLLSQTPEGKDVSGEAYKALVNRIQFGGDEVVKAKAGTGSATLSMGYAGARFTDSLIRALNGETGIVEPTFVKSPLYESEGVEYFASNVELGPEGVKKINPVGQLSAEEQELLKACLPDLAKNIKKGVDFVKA
Assay: steady-state enzyme kinetics with recombinant Mdh3-MBP, NAD turnover at […] nm, with or without […] bithionol
Type: biochemical

**Q.** Which Ki does the source give for `Oc1c(Cl)cc(Cl)cc1Sc1cc(Cl)cc(Cl)c1O` [bithionol] here?
**A.** The Ki was 3 µM.
